What was measured:
[1] = Radiometabolite analysis of blood and tissue in naïve rats; assay type: in vivo, rat; conditions: for Parent fraction: population curve
Experimental: Arterial blood samples were collected at 2, 5, 10, 20, 30, 60, and 120 min after radiotracer injection (69.7 ± 9.1 MBq [mean ± SEM], n = 17 rats), and heart, lung, and brain tissue samples were collected at 60 and 120 min. Blood and tissues were processed as detailed in the supplemental materials.
Invasive Input Function Measurement
Polyethylene catheters (PE50) filled with heparinized saline (20 IU/mL) were inserted into the left femoral artery and vein with the help of a stereomicroscope and securely fastened with ligatures (6-0 silk thread). […]
Radiometabolite Blood and Tissue Processing and Analysis
All blood samples were 1 mL each and manually collected from different animals to generate a population curve, in order to respect total blood volume limits for terminal arterial blood collections in rats. Following blood and tissue collection, all samples were […]
(§1) kept on ice until analyzed. Radioactivity in whole blood and plasma, as well as homogenized tissue samples, was assessed using a well-type γ-counter using a 400– 1400 keV window (Perkin Elmer Wizzard2, USA). Plasma samples (400 μl) and tissue samples (500 μl) were processed by acetonitrile denaturation (1:1.4 v/v) and analyzed by HPLC (Ultimate2000, ThermoFisher, UK) on a Luna C18(2) 10×250 mm, 10 μm column (Phenomenex, UK) with acetonitrile/water 70/30 and flow rate of 4 mL/min to estimate the […]
parent fraction. […]

[2] = Plasma free fraction by ultrafiltration; assay type: in vitro ADME; conditions: Sprague-Dawley, rat, mean ± SEM, n = 5, read-out: parent free fraction in plasma
Experimental: as §1, with “the parent fraction. The plasma fp was determined using ultrafiltration units (Centrifree® 30K,” for “the”
Simulation of Changes in 18F-LW223 BPND for varying blood flow scenarios Simulation work was carried out using a Matlab (MathWorks, USA) 2-tissue compartment code with Ordinary Differential Equation (ODE) solvers. Six different levels of K1 values (0.9, 0.7, 0.5, 0.3, 0.1 and 0.01 mL/min/cc) were tested with fixed k2 and vB=0.05. The following BPND values were simulated: 4, 10, 16 and 20; with k3 modified and k4 fixed. All micro parameters used in the simulations are shown in Supplementa l Table 5. The input function used was an average of the blood curve s taken from healthy animals using the SwissTrace blood sampler (Supplemental Data File 1). The plasma to whole blood ratio used was 1.84 and the AIF was metabolite corrected using a population based curve as in the experimental data. […]

Parent fraction ([1]; 2 min): 0.95
Parent fraction ([1]; 5 min): 0.82
Parent fraction ([1]; 10 min): 0.81
Parent fraction ([1]; 20 min): 0.81
Parent fraction ([1]; 30 min): 0.77
Parent fraction ([1]; 120 min): 0.69
radiometabolites in brain, heart, and lung ([1]; rat, 60 and 120 min after administration): less than 12.7%
plasma to whole blood ratio ([1]; used for input function correction): 1.84
fraction unbound [2]: 0.385
Structure (SMILES): CC[C@@H](C)N(C)C(=O)c1nc2ccccc2c(-c2ccccc2)c1C[18F] [^18F-LW223]

From paper PMC8049364, “Quantification of Macrophage-Driven Inflammation During Myocardial Infarction with ^18F-LW223, a Novel TSPO Radiotracer with Binding Independent of the rs6971 Human Polymorphism” (Journal of Nuclear Medicine, 2021)
